Reference: patent US6645918B1, “N-([1,2,4]triazoloazinyl)thiophenesulfonamide compounds and their use as herbicides” (Dow AgroSciences LLC, priority 2000, dated 2003)

What was measured:
Assay type in all cases: in vivo
[1] = test system: velvetleaf (Abutilion theophrasti); assay: Postemergence herbicidal activity, velvetleaf; conditions: foliar spray, visual after 2 weeks, 0 no injury, 100 complete kill
Experimental: (§1) Seeds of the desired test plant species were planted in Grace-Sierra MetroMix® 306 planting mixture, which typically has a pH of 6.0 to 6.8 and an organic matter content of about 30 percent, in plastic pots with a surface area of 64 square centimeters. When required to ensure good germination and healthy plants, a fungicide treatment and/or other chemical or physical treatment was applied. The plants were grown for 7-21 days in a greenhouse with an approximately 15 hr photoperiod which was maintained at about 23-29° C. during the day and 22-28° C. during the night. Nutrients and water were added on a regular basis and supplemental lighting was provided with overhead metal halide 1000 Watt lamps as necessary. The plants were employed for testing when they reached the first or second true leaf stage. A weighed amount of each test compound, determined by the highest rate to be tested, was placed in a 20 mL glass vial and was dissolved in 4 mL of a 97:3 v/v (volume/volume) mixture of acetone and dimethyl sulfoxide to obtain concentrated stock solutions. […] The concentrated stock solutions obtained were diluted with an aqueous mixture containing acetone, water, iso-propyl alcohol, dimethyl sulfoxide, Atplus 411F crop oil concentrate, and Triton X-155 surfactant (methylenebisdiamyl phenoxy polyethoxy ethanol) in a 48.5:39:10:1.5:1.0:0.02 v/v ratio to obtain spray solutions of known concentration. The solutions containing the highest concentration to be tested were prepared by diluting 2 mL aliquots of the stock solution with 13 mL of the mixture and lower concentrations were prepared by dilution of appropriate smaller portions of the stock solution. Approximately 1.5 mL aliquots of each solution of known concentration were sprayed evenly onto each of the test plant pots using a DeVilbiss atomizer driven by compressed air pressure of 2 to 4 psi (140 to 280 kilopascals) to obtain thorough coverage of each plant. Control plants were sprayed in the same manner with the aqueous mixture. In this test an application rate of 1 ppm results in the application of approximately 1 g/ha. The treated plants and control plants were placed in a greenhouse as described above and watered by sub-irrigation to prevent wash-off of the test compounds. After 2 weeks the condition of the test plants as compared with that of the untreated plants was determined visually and scored on a scale of 0 to 100 percent where 0 corresponds to no injury and 100 corresponds to complete kill.

[2] = test system: pigweed (Amaranthus retroflexus); assay: Postemergence herbicidal activity, pigweed; conditions: 15.6 ppm, foliar spray, visual after 2 weeks; 0 no injury, 100 complete kill
Experimental: as §1

wild oats (Avena fatua) [3] = assay: Preemergence herbicidal activity, wild oats; conditions: soil spray, visual after 3 weeks, 0 no injury, 100 complete kill or no germination
Experimental: (§2) The soil matrix was contained in plastic pots with a surface area of 161 square centimeters. When required to ensure good germination and healthy plants, a fungicide treatment and/or other chemical or physical treatment was applied. A weighed amount, determined by the highest rate to be tested, of each test compound was placed in a 20 mL glass vial and was dissolved in 8 mL of a 97:3 v/v (volume/volume) mixture of acetone and dimethyl sulfoxide to obtain concentrated stock solutions. […] The stock solutions obtained were diluted with a 99.9:0.1 mixture of water and Tween® 155 surfactant (ethoxylated sorbitan fatty acid ester) to obtain application solutions of known concentration. The solutions containing the highest concentration to be tested were prepared by diluting 4 mL aliquots of the stock solution with 8.5 mL of the mixture and lower concentrations were prepared by dilution of appropriate smaller portions of the stock solution. A 2.5 mL aliquot of each solution of known concentration was sprayed evenly onto the soil of each seeded pot using a Cornwall 5.0 mL glass syringe fitted with a TeeJet TN-3 hollow cone nozzle to obtain thorough coverage of the soil in each pot. Control pots were sprayed in the same manner with the aqueous mixture. A highest application rate of 4.48 kg/ha is achieved when 50 mg of test compound is employed. The treated pots and control pots were placed in a greenhouse with an approximately 15 hr photoperiod which was maintained at about 23-29° C. during the day and 22-28° C. during the night. Nutrients and water were added on a regular basis and supplemental lighting was provided with overhead metal halide 1000 Watt lamps as necessary. The water was added by top-irrigation. After 3 weeks the condition of the test plants that germinated and grew as compared with that of the untreated plants that germinated and grew was determined visually and scored on a scale of 0 to 100 percent where 0 corresponds to no injury and 100 corresponds to complete kill or no germination.

[4] = test system: giant foxtail (Setaria faberi); assay: Postemergence herbicidal activity, giant foxtail; conditions: foliar spray, visual after 2 weeks, 0 no injury, 100 complete kill
Experimental: as §1

[5] = test system: Rox orange sorghum (Sorghum bicolor); assay: Postemergence herbicidal activity, Rox orange sorghum; conditions: foliar spray, visual after 2 weeks, 0 no injury, 100 complete kill
Experimental: as §1

[6] = test system: Rox orange sorghum (Sorghum bicolor); assay: Preemergence herbicidal activity, Rox orange sorghum; conditions: soil spray, visual after 3 weeks, 0 no injury, 100 complete kill or no germination
Experimental: as §2

[7] = test system: morningglory (Ipomoea hederacea); assay: Preemergence herbicidal activity, morningglory; conditions: soil spray, visual after 3 weeks, 0 no injury, 100 complete kill or no germination
Experimental: as §2

[8] = test system: blackgrass (Alopecurus myosuroides); assay: Preemergence herbicidal activity, blackgrass; conditions: soil spray, visual after 3 weeks, 0 no injury, 100 complete kill or no germination
Experimental: as §2

[9] = test system: chickweed (Stellaria media); assay: Postemergence herbicidal activity, chickweed; conditions: foliar spray, visual after 2 weeks, 0 no injury, 100 complete kill
Experimental: as §1

viola (Viola tricolor) = assay: Postemergence herbicidal activity, viola; conditions: foliar spray, visual after 2 weeks, 0 no injury, 100 complete kill
Experimental: as §1

[10] = test system: velvetleaf (Abutilion theophrasti); assay: Preemergence herbicidal activity, velvetleaf; conditions: soil spray, visual after 3 weeks, 0 no injury, 100 complete kill or no germination
Experimental: as §2

[11] = test system: crabgrass (Digitaria sanguinalis); assay: Preemergence herbicidal activity, crabgrass; conditions: soil spray, visual after 3 weeks, 0 no injury, 100 complete kill or no germination
Experimental: as §2

[12] = test system: morningglory (Ipomoea hederacea); assay: Postemergence herbicidal activity, morningglory; conditions: foliar spray, visual after 2 weeks, 0 no injury, 100 complete kill
Experimental: as §1

wild oats (Avena fatua) [13] = assay: Postemergence herbicidal activity, wild oats; conditions: foliar spray, visual after 2 weeks, 0 no injury, 100 complete kill
Experimental: as §1

[14] = test system: lambsquarters (Chenopodium album); assay: Postemergence herbicidal activity, lambsquarters; conditions: foliar spray, visual after 2 weeks, 0 no injury, 100 complete kill
Experimental: as §1

[15] = test system: lambsquarters (Chenopodium album); assay: Preemergence herbicidal activity, lambsquarters; conditions: 8.8 g/Ha, soil spray, visual after 3 weeks; 0 no injury, 100 complete kill or no germination
Experimental: as §2

[16] = test system: wild buckwheat (Polygonum convolvulus); assay: Postemergence herbicidal activity, wild buckwheat; conditions: 15.6 ppm, foliar spray, visual after 2 weeks; 0 no injury, 100 complete kill
Experimental: as §1

[17] = test system: giant foxtail (Setaria faberi); assay: Preemergence herbicidal activity, giant foxtail; conditions: soil spray, visual after 3 weeks, 0 no injury, 100 complete kill or no germination
Experimental: as §2

[18] = test system: wild poinsettia (Euphorbia heterophylla); assay: Preemergence herbicidal activity, wild poinsettia; conditions: soil spray, visual after 3 weeks, 0 no injury, 100 complete kill or no germination
Experimental: as §2

[19] = test system: blackgrass (Alopecurus myosuroides); assay: Postemergence herbicidal activity, blackgrass; conditions: foliar spray, visual after 2 weeks, 0 no injury, 100 complete kill
Experimental: as §1

[20] = test system: barnyardgrass (Echinochloa crus-galli); assay: Preemergence herbicidal activity, barnyardgrass; conditions: soil spray, visual after 3 weeks, 0 no injury, 100 complete kill or no germination
Experimental: as §2

[21] = test system: cocklebur (Xanthium strumarium); assay: Postemergence herbicidal activity, cocklebur; conditions: foliar spray, visual after 2 weeks, 0 no injury, 100 complete kill
Experimental: as §1

[22] = test system: pigweed (Amaranthus retroflexus); assay: Preemergence herbicidal activity, pigweed; conditions: soil spray, visual after 3 weeks, 0 no injury, 100 complete kill or no germination
Experimental: as §2

[23] = test system: cocklebur (Xanthium strumarium); assay: Preemergence herbicidal activity, cocklebur; conditions: soil spray, visual after 3 weeks, 0 no injury, 100 complete kill or no germination
Experimental: as §2

## COc1csc(C(F)(F)F)c1S(=O)(=O)Nc1nc2c(OC)cnc(OC)n2n1 [Compound 10]
[1]; 15.6 ppm
  ABUTH postemergence injury score 0-100: 90%
[2]
  AMARE postemergence injury score 0-100: 95%
Wild oats (Avena fatua) [3]; 8.8 g/Ha
  AVEFA preemergence injury score 0-100: 90%
[4]; 15.6 ppm
  SETFA postemergence injury score 0-100: 90%
[5]; 15.6 ppm
  SORBI postemergence injury score 0-100: 80%
[6]; 8.8 g/Ha
  SORBI preemergence injury score 0-100: 100%
[7]; 8.8 g/Ha
  IPOHE preemergence injury score 0-100: 80%
[8]; 8.8 g/Ha
  ALOMY preemergence injury score 0-100: 90%
[9]; 15.6 ppm
  STEME postemergence injury score 0-100: 98%
Viola (Viola tricolor); 15.6 ppm
  VIOTR postemergence injury score 0-100: 90%
[10]; 8.8 g/Ha
  ABUTH preemergence injury score 0-100: 70%
[11]; 8.8 g/Ha
  DIGSA preemergence injury score 0-100: 70%
[12]; 15.6 ppm
  IPOHE postemergence injury score 0-100: 80%
Wild oats (Avena fatua) [13]; 15.6 ppm
  AVEFA postemergence injury score 0-100: 80%
[14]; 15.6 ppm
  CHEAL postemergence injury score 0-100: 70%
[15]
  CHEAL preemergence injury score 0-100: 95%
[16]
  POLCO postemergence injury score 0-100: 70%
[17]; 8.8 g/Ha
  SETFA preemergence injury score 0-100: 90%
[18]; 8.8 g/Ha
  EPHHL preemergence injury score 0-100: 75%
[19]; 15.6 ppm
  ALOMY postemergence injury score 0-100: 50%
[20]; 8.8 g/Ha
  ECHCG preemergence injury score 0-100: 90%
[21]; 15.6 ppm
  XANST postemergence injury score 0-100: 100%
[22]; 8.8 g/Ha
  AMARE preemergence injury score 0-100: 100%

## COc1sccc1S(=O)(=O)Nc1nc2c(C)cnc(OC)n2n1 [Compound 9]
[1]; 62 ppm
  ABUTH postemergence injury score 0-100: 70%
Wild oats (Avena fatua) [3]; 70 g/Ha
  AVEFA preemergence injury score 0-100: 30%
[4]; 62 ppm
  SETFA postemergence injury score 0-100: 20%
[5]; 62 ppm
  SORBI postemergence injury score 0-100: 70%
[6]; 70 g/Ha
  SORBI preemergence injury score 0-100: 50%
[7]; 70 g/Ha
  IPOHE preemergence injury score 0-100: 10%
[8]; 70 g/Ha
  ALOMY preemergence injury score 0-100: 100%
[9]; 62 ppm
  STEME postemergence injury score 0-100: 95%
Viola (Viola tricolor); 62 ppm
  VIOTR postemergence injury score 0-100: 60%
[10]; 70 g/Ha
  ABUTH preemergence injury score 0-100: 30%
[11]; 70 g/Ha
  DIGSA preemergence injury score 0-100: 10%
[12]; 62 ppm
  IPOHE postemergence injury score 0-100: 70%
Wild oats (Avena fatua) [13]; 62 ppm
  AVEFA postemergence injury score 0-100: 10%
[14]; 62 ppm
  CHEAL postemergence injury score 0-100: 40%
[23]; 70 g/Ha
  XANST preemergence injury score 0-100: 25%
[17]; 70 g/Ha
  SETFA preemergence injury score 0-100: 15%
[18]; 70 g/Ha
  EPHHL preemergence injury score 0-100: 10%
[19]; 62 ppm
  ALOMY postemergence injury score 0-100: 60%
[20]; 70 g/Ha
  ECHCG preemergence injury score 0-100: 0%
[21]; 62 ppm
  XANST postemergence injury score 0-100: 60%
[22]; 70 g/Ha
  AMARE preemergence injury score 0-100: 40%

## COc1sccc1S(=O)(=O)Nc1nc2c(OC)cnc(OC)n2n1 [Compound 8]
[1]; 7.8 ppm
  ABUTH postemergence injury score 0-100: 75%
Wild oats (Avena fatua) [3]; 8.8 g/Ha
  AVEFA preemergence injury score 0-100: 80%
[4]; 7.8 ppm
  SETFA postemergence injury score 0-100: 60%
[5]; 7.8 ppm
  SORBI postemergence injury score 0-100: 95%
[6]; 8.8 g/Ha
  SORBI preemergence injury score 0-100: 70%
[7]; 8.8 g/Ha
  IPOHE preemergence injury score 0-100: 75%
[8]; 8.8 g/Ha
  ALOMY preemergence injury score 0-100: 85%
[9]; 7.8 ppm
  STEME postemergence injury score 0-100: 95%
Viola (Viola tricolor); 7.8 ppm
  VIOTR postemergence injury score 0-100: 75%
[10]; 8.8 g/Ha
  ABUTH preemergence injury score 0-100: 70%
[11]; 8.8 g/Ha
  DIGSA preemergence injury score 0-100: 50%
[12]; 7.8 ppm
  IPOHE postemergence injury score 0-100: 60%
Wild oats (Avena fatua) [13]; 7.8 ppm
  AVEFA postemergence injury score 0-100: 85%
[14]; 7.8 ppm
  CHEAL postemergence injury score 0-100: 70%
[15]
  CHEAL preemergence injury score 0-100: 70%
[23]; 8.8 g/Ha
  XANST preemergence injury score 0-100: 80%
[17]; 8.8 g/Ha
  SETFA preemergence injury score 0-100: 60%
[18]; 8.8 g/Ha
  EPHHL preemergence injury score 0-100: 85%
[19]; 7.8 ppm
  ALOMY postemergence injury score 0-100: 50%
[20]; 8.8 g/Ha
  ECHCG preemergence injury score 0-100: 25%
[21]; 7.8 ppm
  XANST postemergence injury score 0-100: 60%
[22]; 8.8 g/Ha
  AMARE preemergence injury score 0-100: 80%
